Ends that are not written are not given here.

The record followed here is patent US20240366728A1, “Treatment of Diabetes Mellitus” (Carmot Therapeutics Inc., priority 2023, published 2024).

For series [1], the system named is participants with obesity and participants with T2DM. In words: CT-868-003 crossover study: safety. To be noted: in vivo. Type of series: in vivo, human. An excerpt:
Safety assessments of this study included treatment-emergent adverse events (TEAEs), serious adverse events (SAEs), adverse events of special interest (AESI), vital signs, 12-lead electrocardiogram (ECG), clinical lab evaluations, and physical exam.
Safety assessments which occurred throughout the entire study, included monitoring of incidence and severity of AEs, treatment-emergent AEs (TEAEs) and AEs of special interest (AESIs) (e.g., GI events, hypoglycemia), clinical laboratory abnormalities (ECGs, chemistry, hematology, and urinalysis), and changes in vital sign measurements (BP, heart rate, respiratory rate, and aural temperature).
AE terms recorded by the Investigator were coded to system organ class (SOC) and preferred term (PT) using the Medical Dictionary for Regulatory Activities (MedDRA) version 24.0. Severity was collected using the Common Terminology Criteria for AEs (CTCAE) version 5.0 Toxicity Grade. Events with missing severity were summarized as Grade 3. TEAEs summarized by severity counted each participant once for the maximum severity within each SOC and PT within each in-house treatment period and overall. TEAEs marked with a relationship to study treatment as definitely, probable, possible, or missing were considered as related TEAEs. Events with missing relationship to study treatment were summarized as related. The number and percentage of participants with TEAEs were summarized by MedDRA-coded SOCs and PTs.

Series [2] can be described thus: pharmacokinetics in CD-1 mice, single SC injection. To be noted: 1 mg/kg SC.
Procedure: Blood was kept on ice until centrifuged at 4600 rpm for five minutes at 4° C. Plasma was stored at −80° C. until analysis. Compounds were extracted from plasma and quantified against a standard curve using an AB Sciex 7500+LC-MS/MS system (FIG. 5).
In series [3] the test system is C57BL/6J-DIO mice. In words: intraperitoneal glucose tolerance test in DIO mice. To be noted: for efficacy in ipGTT eight hours post-drug administration (in words): C57BL/6J-DIO mice, single dose 2.4 nmol/kg. Type of series: in vivo, mouse.
The test system of series [4] is lean C57BL/6J, GLP-1R+/+ and GLP-1R-/- mice. In words: single intracerebroventricular injection: food consumption and body weight. To be noted: lean mice, single ICV 0.025 nmol, up to 72 h.
Series [5] addresses human GLP-1R (Homo sapiens, UniProt P43220). In words: receptor internalization (Nano-Glo HiBiT), human GLP-1R. The series is classed as cell-based. More on the design: host or cells: HEK293.
Procedure: GLP-1R and GIPR internalization were measured using Promega's Nano-Glo® HiBit extracellular detection system (Promega Corporation; Madison, WI). Hek293 cells were transiently transfected with HiBiT-tagged hGLP-1R or hGIPR plasmids (Promega Corporation; Madison, WI). Cells were lifted using the TrypLE express enzyme (ThermoFisher Scientific) and plated at 80,000-100,000 cells per well in 96 well plates. Cells were then treated with Nano-Glo HibiT extracellular buffer containing LgBiT protein (1:100), and the Nano-Glo HiBiT extracellular substrate (1:50).
GLP-1R and GIPR internalization was measured using Promega's Nano-Glo® HiBit extracellular detection system (Promega Corporation; Madison, WI). HEK293 cells were transiently transfected with low quantities of HiBiT-tagged hGLP-1R or hGIPR plasmids (Promega Corporation; Madison, WI). The next day, cells were lifted using TrypLE express enzyme (ThermoFisher Scientific) and plated at 80,000-100,000 cells per well in 96 well plates.

Sequence of human GLP-1R (P43220 24-463): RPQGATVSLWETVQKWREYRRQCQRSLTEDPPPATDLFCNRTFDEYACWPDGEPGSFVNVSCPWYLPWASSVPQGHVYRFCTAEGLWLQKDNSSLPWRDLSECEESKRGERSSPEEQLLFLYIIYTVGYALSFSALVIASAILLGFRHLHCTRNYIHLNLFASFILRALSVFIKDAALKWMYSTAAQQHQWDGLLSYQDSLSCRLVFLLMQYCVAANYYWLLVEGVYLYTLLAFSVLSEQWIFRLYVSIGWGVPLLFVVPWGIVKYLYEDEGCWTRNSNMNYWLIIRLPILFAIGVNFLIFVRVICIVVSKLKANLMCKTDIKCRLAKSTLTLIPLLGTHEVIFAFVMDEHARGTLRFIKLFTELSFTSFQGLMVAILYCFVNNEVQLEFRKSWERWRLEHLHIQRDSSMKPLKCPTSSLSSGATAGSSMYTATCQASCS

For the compound `CCCCCCCCCCCCCCCC(=O)N[C@@H](CCC(=O)NCCCC[C@H](NC(=O)[C@H](C)NC(=O)[C@H](C)NC(=O)[C@H](CCC(N)=O)NC(=O)CNC(=O)[C@H](CCC(=O)O)NC(=O)[C@H](CC(C)C)NC(=O)[C@H](Cc1ccc(O)cc1)NC(=O)[C@H](CO)NC(=O)[C@H](CO)NC(=O)[C@@H](NC(=O)[C@H](CC(=O)O)NC(=O)[C@H](CO)NC(=O)[C@@H](NC(=O)[C@H](Cc1ccccc1)NC(=O)[C@@H](NC(=O)CNC(=O)[C@H](CCC(=O)O)NC(=O)[C@H](C)NC(=O)[C@@H](N)Cc1cnc[nH]1)[C@@H](C)O)[C@@H](C)O)C(C)C)C(=O)N[C@@H](CCC(=O)O)C(=O)N[C@@H](Cc1ccccc1)C(=O)N[C@H](C(=O)N[C@@H](C)C(=O)N[C@@H](Cc1c[nH]c2ccccc12)C(=O)N[C@@H](CC(C)C)C(=O)N[C@H](C(=O)N[C@@H](CCCNC(=N)N)C(=O)NCC(=O)N[C@@H](CCCNC(=N)N)C(=O)NCC(=O)O)C(C)C)[C@@H](C)CC)C(=O)O` [liraglutide, Liraglutide, reference compound], in series [1], the “AEs of Special Interest (AESI) Total” value is 4 (40.0) n (%); the Abdominal pain is 0 n (%); the Anaemia was 0 n (%); the “Any AESIs, Grade 2” value was 1 (25.0%) n (%). Moreover, in series [1], the Arthralgia is recorded as 0 n (%), the “At Least 1 Study Drug Related TEAE” value is 3 (30.0) n (%), the “At Least 1 TEAE” value was 7 (70.0) n (%) and the Back pain was 0 n (%). In series [1], the “Blood and lymphatic system disorders” value was 0 n (%); the Chills is 0 n (%); the Coagulation test abnormal is 0 n (%); the Constipation is 0 n (%). Moreover, in series [1], the Decreased appetite is recorded as 0 n (%), the Diarrhoea was 0 n (%), the Dizziness is recorded as 0 n (%) and the Eructation was 0 n (%). Further, in series [1], the Gastroesophageal reflux disease is reported as 0 n (%); the “General disorders and administration site conditions” value is listed as 0 n (%); the Headache was 0 n (%); the Hypoglycemia is 3 (30.0) n (%). In series [1], the Infections and infestations was 0 n (%); the “Injection Site Reaction” value is recorded as 0 n (%); the Injection site haemorrhage is given as 0 n (%); the Injection site reactions is 0 n (%). Moreover, in series [1], the Investigations is 0 n (%); the “Musculoskeletal and connective tissue disorders” value is 0 n (%); the Nervous system disorders is listed as 0 n (%); the Peripheral swelling is 0 n (%). Moreover, in series [1], the Rash is 0 n (%), the SAEs is listed as 0 n (%), the Skin hyperpigmentation is listed as 0 n (%) and the “TEAEs leading to drug discontinuation” value was 0 n (%). For the same compound, in series [1], the “Treatment Discontinuation” value is 0 n (%), the Urinary tract infection is on record as 0 n (%), the Vomiting is reported as 0 n (%) and the “participants with Grade 1 hypoglycemia events” value was 3 participants. Besides, in series [2], the “times more exposure than CT-859” value is given as 6 times.

In the case of Exendin-4 [Ex-4, reference compound], in series [3], the “efficacy in ipGTT eight hours post-drug administration (in words)” value was “no longer effective”. Moreover, the “food consumption and body weight after ICV injection (in words)” value (shortened to “food consumption and body weight”) in series [4] is given as “started to lose efficacy by 48 hours”; in series [4] (listed as exendin-4), “significant reduction of cumulative food consumption”.

As to “FG-EGT-FTS-DLS-KQM-EEE-AVR-LFI-EWL-LAG-GPS-SGA-PPPS-NH2 (FGEGTFTSDLSKQMEEEAVRLFIEWLLAGGPSSGAPPPS-NH2) [Ex-Phe1, reference compound]”, in series [3], the “glucose tolerance and body weight vs exendin-4 (in words)” value is “improves glucose tolerance and decreases body weight more than exendin-4”; the “efficacy in ipGTT eight hours post-drug administration (in words)” value was “remained efficacious”. Also, the “signalling profile at GLP-1R (in words)” value in series [5] is “cAMP-biased agonist that prevents receptor internalization”. Moreover, in series [4], the “food consumption and body weight” value was “remained efficacious”. The “food consumption and body weight” value in series [4] (listed as exendin-Phe1) was “greater reduction of food intake and much more prolonged body weight reduction as compared to exendin-4”.
